Values of other authors as cited in US7718667B2, “Fused aminopiperidines as dipeptidyl peptidase-IV inhibitors for the treatment or prevention of diabetes” (Merck Sharp & Dohme Corp., priority 2004, dated 2010).

What was measured:
[1] = target: T1, DPP-IV (Homo sapiens, UniProt P27487)
T1 construct: GRF is rapidly degraded in plasma to GRF[3-44]; from tissue

[2] = tested on: rats; conditions: survival doubled from day 7
[3] = tested on: mouse; conditions: cyclophosphamide-induced neutropenia

T1 sequence (P27487 39-766 limits assumed, species assumed): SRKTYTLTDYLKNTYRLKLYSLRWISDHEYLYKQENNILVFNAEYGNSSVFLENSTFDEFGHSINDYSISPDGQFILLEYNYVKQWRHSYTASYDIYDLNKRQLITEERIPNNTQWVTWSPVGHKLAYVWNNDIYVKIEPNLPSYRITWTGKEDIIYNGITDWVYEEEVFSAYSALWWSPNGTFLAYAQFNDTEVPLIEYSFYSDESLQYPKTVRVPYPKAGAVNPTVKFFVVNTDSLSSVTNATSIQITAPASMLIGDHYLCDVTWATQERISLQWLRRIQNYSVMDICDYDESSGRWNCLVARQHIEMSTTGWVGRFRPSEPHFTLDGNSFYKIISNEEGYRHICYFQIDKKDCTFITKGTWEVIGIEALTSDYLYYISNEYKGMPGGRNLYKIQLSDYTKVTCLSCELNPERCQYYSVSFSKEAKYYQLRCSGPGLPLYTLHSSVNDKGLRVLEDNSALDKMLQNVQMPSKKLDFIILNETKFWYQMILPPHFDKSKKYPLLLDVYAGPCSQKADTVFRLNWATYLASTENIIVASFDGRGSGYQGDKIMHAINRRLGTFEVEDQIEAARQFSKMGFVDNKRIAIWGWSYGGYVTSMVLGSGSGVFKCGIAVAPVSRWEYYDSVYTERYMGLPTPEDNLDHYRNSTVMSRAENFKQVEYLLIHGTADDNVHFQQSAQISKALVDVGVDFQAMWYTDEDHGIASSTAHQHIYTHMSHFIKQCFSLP

## CC[C@H](C)[C@H](N)C(=O)N1CCC[C@H]1C(=O)N[C@H](C(=O)O)[C@@H](C)CC [diprotin A]
[1]
  degradation of GRF in plasma to GRF[3-44]: prevented

## CC(C)N1CCC(c2ccccc2)(c2ccccc2)CC1 [Prodipine, Pro-Pro-diphenyl-phosphonate]
[2]
  cardiac allograft survival: 14 day

## CC(C)[C@H](N)C(=O)N1CCC[C@H]1B(O)O [Val-Boro-Pro]
[3]
  hematopoiesis: stimulated hematopoiesis
